Common to all, as to assay: Dynamic properties (Michaelis-Menten) of LsGluDH mutant, PPO reductive amination
Common to all, as to assay type: biochemical
Common to all, as to details: PPO 5-100 mM, NADPH 0.15 mM, NH4Cl 50 mM, PBS pH 7.5, 30° C., diluted crude enzyme, 340 nm

For assay [1], the target named is T1, Lysinibacillus sphaericus glutamate dehydrogenase (LsGluDH, SEQ ID NO: 2) variant A175G-V173G, SEQ ID NO: 35 (Lysinibacillus pinottii, UniProt A0ABT2DNY0, A175G/V173G).
T1 sequence (A0ABT2DNY0 1-457 V173G/A175G): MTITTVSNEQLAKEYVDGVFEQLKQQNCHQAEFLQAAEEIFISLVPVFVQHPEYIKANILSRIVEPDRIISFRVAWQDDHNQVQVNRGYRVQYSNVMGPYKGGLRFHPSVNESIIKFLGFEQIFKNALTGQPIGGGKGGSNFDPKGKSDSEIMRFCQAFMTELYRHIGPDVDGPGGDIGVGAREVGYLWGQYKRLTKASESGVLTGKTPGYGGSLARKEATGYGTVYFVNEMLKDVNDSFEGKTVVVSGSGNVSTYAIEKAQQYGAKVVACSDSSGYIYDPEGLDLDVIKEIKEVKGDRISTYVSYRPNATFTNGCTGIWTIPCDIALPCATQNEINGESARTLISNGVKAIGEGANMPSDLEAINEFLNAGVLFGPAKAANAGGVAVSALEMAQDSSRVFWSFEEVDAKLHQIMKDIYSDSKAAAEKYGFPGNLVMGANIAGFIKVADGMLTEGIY
The procedure:
(§1) A plurality of reaction systems (200 μL) comprising PBS of 100 mM pH 7.5 (pH was adjusted with aqueous ammonia solution), NADPH (reductive) of 0.15 mM, NH4Cl of 50 mM, diluted (500 folds) crude enzyme solution of 10% volume and the substrate PPO at various concentrations (5-100 mM) were formulated on a 96-well plate. The intensity of the UV absorption at 340 nm was detected at 30° C., and the rate of change in absorption over time (mA/min) was recorded. The obtained parameters were plugged into Michaelis-Menten equation, in which the reaction velocity was calculated with the rate of change in absorption.
(§2) The mutants were prepared with the coding nucleic acid of LsGluDH (SEQ ID NO: 2) as the template, and the enzyme activities and the dynamic parameters Vmax and Km were measured, according to the method of Example 1. The resulted mutants and the enzyme activities and the dynamic parameters thereof are shown in Table 2, and the relative enzyme activity means the percentage of the enzyme activity of the mutant to the enzyme activity of the mutant of SEQ ID NO: 31.

Assay [2] concerns the target T2, Lysinibacillus sphaericus glutamate dehydrogenase (LsGluDH, SEQ ID NO: 2) variant A175G-V173S, SEQ ID NO: 34 (Lysinibacillus pinottii, UniProt A0ABT2DNY0, A175G/V173S).
T2 sequence (A0ABT2DNY0 1-457 V173S/A175G): T1 sequence (A0ABT2DNY0 1-457 V173G/A175G) with G173S
The procedure:
as §1, §2

Assay [3] has as its target T3, Lysinibacillus sphaericus glutamate dehydrogenase (LsGluDH, SEQ ID NO: 2) variant A175G-I133V, SEQ ID NO: 33 (Lysinibacillus pinottii, UniProt A0ABT2DNY0, A175G/I133V).
T3 sequence (A0ABT2DNY0 1-457 A175G/I133V): T1 sequence (A0ABT2DNY0 1-457 V173G/A175G) with I133V, G173V
The procedure:
as §1, §2

Assay [4] deals with T4, Lysinibacillus sphaericus glutamate dehydrogenase (LsGluDH, SEQ ID NO: 2) variant A175G, SEQ ID NO: 31 (Lysinibacillus pinottii, UniProt A0ABT2DNY0, A175G).
T4 sequence (A0ABT2DNY0 1-457 A175G): T1 sequence (A0ABT2DNY0 1-457 V173G/A175G) with G173V
The procedure: as §1, §2

Numbering of substitutions follows the chain as printed.

As a reminder, the Km is the substrate concentration at which the rate is half of its maximum.

For the molecule `CP(=O)(O)CCC(=O)C(=O)O` [PPO, 2-carbonyl-4-(hydroxymethylphosphono) butyric acid], the Km stood at 49 mM in assay [1], 62 mM in assay [2], 35 mM in assay [3] and 49 mM in assay [4]. Besides, the Vmax is on record as 64 mA/min in assay [1], 106 mA/min in assay [2], 39 mA/min in assay [3] and 39 mA/min in assay [4].

The values above are taken from patent US20250129344A1, “MODIFIED GLUTAMATE DEHYDROGENASE AND APPLICATION THEREOF” (Hunan Lier Biotech Co., Ltd., priority 2021, published 2025).
